Measurements taken from US12129235B2, “TSPO binders” (The University Court of the University of Glasgow, priority 2018, dated 2024).

Columns and labels:
[1] = Observation after in vivo administration of ^18F-LW223
TSPO [2] = target: T1, TSPO (Rattus norvegicus, UniProt P16257); assay: ^18F-LW223 PET/CT in rat model of myocardial infarction; assay type: in vivo, rats; set-up: from tissue; host or cells: living Sprague-Dawley rats (brain, heart, lungs and other organs); conditions: heart, brain and lungs; 7 days after myocardial infarction
From the text: Rats underwent permanent of ligation of the left anterior descending coronary artery to induce myocardial infarction and after 7 days were imaged using ^18F-LW223 PET/CT (see FIG. 11). Naive rats were used as a healthy control for comparison. […] This indicates a myocardial infarction mediated increase in expression of TSPO within these organs which may also be interpreted as increased systemic inflammation.

TSPO [3] = target: T1, TSPO; assay: ^18F-LW223 PET blocking and displacement with PK11195 (1 mg/kg) in rats; assay type: in vivo; set-up: from tissue; host or cells: living Sprague-Dawley rats (brain, heart, lungs and other organs); conditions: for reduction of radiotracer binding post-blocking / VT post-blocking: PK11195 1 mg/kg; for displacement from target sites at equilibrium time point: PK11195 1 mg/kg after 60 min; for VT post-blocking: mean±SEM, n=3
Protocol: (§1) 13 PET scans were performed with ^18F-LW223 (mean injected radioactivity of 19.55±2.1 MBq). Scans were acquired following i.v. bolus injection of ^18F-LW223 via tail vein or femoral vein shunt (invasive kinetic modelling experiments with β-probe automatic blood sampler) in rats. Test-retest scans were obtained in three rats following i.v. bolus of the radiotracer, with two weeks interval between test and retest imaging sessions. […] These scans were compared to baseline scans where no PK11195 was used. For displacement studies, rats received i.v. administration of ^18F-LW223 and scanned continuously for 120 min. […] A male and female mouse were initially used to derive the dosimetry estimates for ^18F-LW223 over a 4 h dynamic scan, followed by additional mice in a further study (in a study with a mean injected radioactivity of 10.83±5.6 MBq).
(§2) All PET data were acquired using a preclinical PET/CT small animal scanner (nanoPET/CT, Mediso, Hungary). A CT scan (semi-circular full trajectory, maximum field of view, 480 projections, 50 kVp, 300 ms and 1:4 binning) was acquired for attenuation correction. Immediately following radiotracer administration, a 120 minutes emission scan was obtained using 3-dimentional 1:5 mode and re-binned as follows: 18×10 s; 2×30 s; 1×60 s; 2×2 min; 10×5 min; 6×10 min. PET images were reconstructed using Mediso's iterative Tera-Tomo 3D reconstruction algorithm and the following settings: 4 iterations, 6 subsets, full detector model, low regularization, spike filter on, voxel size 0.4 mm and 400-600 keV energy window. PET data were corrected for randoms, scatter and attenuation.
(§3) Image Processing and Data Analysis Reconstructed scans were imported into PMOD 3.8 software (PMOD Technologies, Switzerland). Volumes of interest (VOIs) were manually drawn around organs of interest. Time-activity curves (TACs) were generated and standardized uptake values (SUVs) calculated as concentration in the VOI divided by injected dose divided by animal weight. Kinetic modelling was performed using compartmental analysis (1-Tissue (1T) and 2-Tissue (2T) models) and graphical analysis (Logan plot and Ichise multivariate analysis) to estimate the volume of distribution (VT) in different tissues (Innis et al.; Logan; and Ichise et al.). Model fitting performance was evaluated using the Akaike information criterion (AIC) and the model selection criterion (MSC), where the preferred model had the lowest AIC and highest MSC. The selected identifiability criterion was the percentage standard error (% SE) of VT estimates. Kinetic modeling was also performed using graphical analysis to estimate the distribution volume ratio (DVR) in tissue regions and organs where the reference region VOI was the blood pool VOI in the left ventricle (Logan et al.).

TSPO [4] = target: T1, TSPO; assay: ^18F-LW223 PET kinetic modelling and test-retest in rats; assay type: in vivo; set-up: from tissue; host or cells: living Sprague-Dawley rats (brain, heart, lungs and other organs); conditions: for VT: baseline, Logan modelling; for VT / Distribution volume ratio (DVR) relative to blood pool: mean±SEM, n=3
Protocol: All experiments were conducted in accordance with the local University of Edinburgh animal ethics committee and were authorized by the Home Office under the Animals (Scientific Procedures) Act 1986. 28 adult male Sprague-Dawley rats (357.1±8.1 g and 10.2±0.4 weeks), and 2 C57bl/6 (25.3±3.7 g and 10.1±0.0 weeks) were used for this study, with 2 C57bl/6 (26.0±5.3 g and 13.5±5.7 weeks) used in an additional study. The animals were housed under standard 12 h light:12 h dark conditions with food and water available ad libitum. On the day of the experiment, anesthesia was induced and maintained with 1.5-2.5% isoflurane (50/50 oxygen/nitrous oxide, 1 L/min). For imaging experiments, an intravenous (i.v.) line was established in the femoral vein or tail vein for injection of the radiotracer and the femoral artery was cannulated to allow automated blood sample collection, as previously described (Warnock et al.).
as §1
A commercially available β-probe system (Twilite2, Swisstrace, Switzerland) was used for the measurement of blood radioactivity as previously described (Warnock et al.). […] With data acquired in separate studies (radiometabolite experiments), the whole-blood arterial input function measured by the automatic blood sampler was corrected for the plasma-to-whole blood ratio and for metabolism in vivo.
as §2
as §3, with “Kinetic modeling was also performed using graphical analysis to estimate the distribution volume ratio (DVR) in tissue regions and organs where the reference region VOI was the blood pool VOI in the left ventricle (Logan et al.).” left out

## CC[C@@H](C)N(C)C(=O)c1nc2ccccc2c(-c2ccccc2)c1C[18F] [^18F-LW223, (R)-(N-sec-Butyl)-3-[19-fluoro]-methyl-N-methyl-4-phenylquinoline-2-carboxamide]
[1]
  negative effects following administration in vivo: no negative effects were apparent
TSPO [2]
  SUV relative to the blood pool versus naive rats: increase
TSPO [3]; PK11195 1 mg/kg prior to tracer
  reduction on the SUV values post-blocking compared with baseline: 64-81%
TSPO [3]; brain
  reduction of radiotracer binding post-blocking: 12%
  displacement from target sites at equilibrium time point: 29%
TSPO [3]; heart
  reduction of radiotracer binding post-blocking: 35%
  displacement from target sites at equilibrium time point: 52%
  VT post-blocking: 6.19±0.38
TSPO [3]; lungs
  reduction of radiotracer binding post-blocking: 56%
  displacement from target sites at equilibrium time point: 40%
  VT post-blocking: 2.27±0.07
TSPO [4]; brain
  test-retest inter-subject variability of DVR: 16%
  VT: 1.46
  Distribution volume ratio (DVR) relative to blood pool: 0.53±0.06
TSPO [4]; heart
  test-retest inter-subject variability of DVR: 2%
  VT: 9.48±0.03
  Distribution volume ratio (DVR) relative to blood pool: 2.96±0.14
TSPO [4]; lungs
  test-retest inter-subject variability of DVR: 15%
  VT: 5.13±0.29
  Distribution volume ratio (DVR) relative to blood pool: 1.84±0.13
